Test results as given in patent publication US9355787B2, “Method of forming rigid imide material from soluble amide ester functionalized precursors” (Colorado School of Mines, priority 2013, dated 2016).

Assay: Qualitative solubility of diester-diacid monomers in organic solvents

Compound	Solubility of monomer or dianhydride, in words
CCCCCCOC(=O)c1ccc2c3ccc(C(=O)O)c4c(C(=O)OCCCCCC)ccc(c5ccc(C(=O)O)c1c52)c43 [Monomer 2c, di-N-hexyl ester of perylene-3,4,9,10 tetracarboxylic acid]	soluble in polar aprotic solvents like NMP, and DMSO
CCCCC(CC)COC(=O)c1ccc2c3ccc(C(=O)O)c4c(C(=O)OCC(CC)CCCC)ccc(c5ccc(C(=O)O)c1c52)c43 (stereo not drawn) [Monomer 2d, di-2-ethy hexyl ester of perylene-3,4,9,10 tetracarboxylic acid]	soluble in polar aprotic solvents like NMP, and DMSO
O=C1OC(=O)c2ccc3c4ccc5c6c(ccc(c7ccc1c2c73)c64)C(=O)OC5=O [PTDA, 3,4,9,10-perylenetetracarboxylic dianhydride]	insoluble in all solvents
di-ethyl ester of NTDA [Monomer 1b]	soluble in most of the organic solvents
di-hexyl ester of NTDA [Monomer 1c]	soluble in most of the organic solvents
di-methyl ester of NTDA [Monomer 1a]	soluble in most of the organic solvents
